The text below walks through data of paper PMC7318538, “Bergenia pacumbis from Nepal, an astonishing enzymes inhibitor” (BMC Complementary Medicine and Therapies, 2020).

Values after ≈ are worked out from the molar mass of the structure shown.

Experiment [1] in a line: ABTS radical scavenging assay. The following applies: 10 min in the dark, absorbance 720 nm; mean ± SD, triplicates. As for the experimental part:
In-vitro 2, 2′-azino-bis (3-ethylbenzothiazoline-6-sulphonic acid) (ABTS) scavenging assay was performed as by Liyanaarachchi et al.. An aliquot of 1 mL of plant extract of varying concentrations was mixed with 3 mL of ABTS working solution and incubated for 10 min in the dark and the decrease in absorbance was recorded at λ = 720 nm in a UV-visible spectrophotometer. Gallic acid and 50% methanol were used as reference and positive control respectively.

Experiment [2] can be described thus: DPPH radical scavenging assay. The following applies: 30 min in the dark, absorbance 517 nm; mean ± SD, triplicates. On the procedure:
In-vitro antioxidant potential of the different extracts of B. pacumbis was assessed by 1,1-diphenyl 1–2-picryl-hydrazyl (DPPH) assay accordingly with Jha et al.. One milliliter of plant extract of different concentrations was added in 3 mL of the DPPH solution ([…]) and incubated for 30 min in the dark. Absorbance was measured at the wavelength (λ) = 517 nm in a UV-visible spectrophotometer (UV-1800, SHIMADZU). Gallic acid and methanolic DPPH were used as reference and positive control respectively.
In general terms: Loss of DPPH colour is used to gauge radical scavenging.

Regarding `O=C(O)c1cc(O)c(O)c(O)c1` [Gallic Acid], the “IC50 Value ABTS” value in experiment [1] is 1.96 ± 0.05 µg/mL (≈ 11.5 µM). Moreover, the “IC50 Value DPPH” value in experiment [2] was found to be 5.12 ± 0.12 µg/mL (≈ 30.1 µM).
